What all share (format): cell-based
Assay [1] has as its target T1, PAR1 (Homo sapiens, UniProt P25116).
T1 construct: endogenous in cells; host or cells: platelets
T1 sequence (P25116 22-425): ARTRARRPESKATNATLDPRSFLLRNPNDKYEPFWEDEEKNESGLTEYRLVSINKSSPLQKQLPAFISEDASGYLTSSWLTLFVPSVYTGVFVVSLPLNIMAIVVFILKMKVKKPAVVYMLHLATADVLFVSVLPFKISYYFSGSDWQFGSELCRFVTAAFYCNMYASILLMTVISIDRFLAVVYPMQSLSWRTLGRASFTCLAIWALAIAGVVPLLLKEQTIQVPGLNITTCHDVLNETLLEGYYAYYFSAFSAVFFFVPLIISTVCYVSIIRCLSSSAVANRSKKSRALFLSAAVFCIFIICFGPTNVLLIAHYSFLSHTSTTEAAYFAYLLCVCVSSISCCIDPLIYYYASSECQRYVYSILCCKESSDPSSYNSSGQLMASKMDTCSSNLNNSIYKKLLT
In words: Human platelet activation by PAR1 agonist peptide SFLLRN. The following applies: 10 μM compound, PAR1AP SFLLRN. The method, then:
Figure 5 (A) Off-target controls: % of vehicle control for γ-thrombin (100 nM), PAR4 component of α-thrombin (5 nM α-thrombin +1 μM vorapaxar), PAR4 agonist peptide 200 μM AYPGKF, 200 μM PAR1 agonist peptide SFLLRN, and GPVI agonist convulxin 3.16 nM.
Compounds were screened for inhibition activity against human PAR4 using 100 nM γ-thrombin or 200 μM PAR4-AP in a single-point assay (10 μM test compound). Dose–response curves were conducted for active compounds. Active compounds were also assessed at a single concentration of 10 μM against other agonists, including the PAR4 component of α-thrombin (5 nM α-thrombin +1 μM vorapaxar), the PAR1 agonist peptide (20 μM SFFLRN), and the GPVI receptor agonist convulxin (3 nM).

Assay [2] deals with T2, PAR4 (Homo sapiens, UniProt Q96RI0).
T2 sequence (Q96RI0 18-385): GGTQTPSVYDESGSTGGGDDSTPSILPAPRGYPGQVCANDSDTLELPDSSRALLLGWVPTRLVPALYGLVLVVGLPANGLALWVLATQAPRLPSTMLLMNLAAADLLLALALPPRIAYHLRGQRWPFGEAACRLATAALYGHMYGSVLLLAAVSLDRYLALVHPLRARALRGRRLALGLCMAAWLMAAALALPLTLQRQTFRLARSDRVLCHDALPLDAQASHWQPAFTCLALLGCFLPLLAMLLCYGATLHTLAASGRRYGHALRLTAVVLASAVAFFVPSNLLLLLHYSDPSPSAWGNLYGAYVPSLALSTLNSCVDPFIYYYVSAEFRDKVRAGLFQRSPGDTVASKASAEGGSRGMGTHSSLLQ
In words: Human platelet activation by PAR4 agonist peptide (PAR4-AP, AYPGKF). The following applies: 10 μM compound, 200 μM AYPGKF. Further details: endogenous in cells; host or cells: platelets. The procedure:
To test the antagonistic effect of the compounds on PAR4, a flow cytometry assay of human platelets was employed. Each compound was screened at 10 μM in human platelets using flow cytometry for GPIIbIIIa activation (PAC1) and P-selectin (CD62p) expression as previously described.[4] Activation of GPIIbIIIa allows interaction with divalent fibrinogen or multivalent von Willebrand factor, leading to platelet aggregation.[41] PAR4 stimulation also triggers α-granule secretion containing P-selectin.[5] […] Platelets were treated with each test compound or vehicle control DMSO before activating with γ-thrombin (100 nM) or PAR4 agonist peptide mimetic (200 μM, “PAR4-AP” AYPGKF) for 30 min. γ-thrombin activates PAR4 but not PAR1.[42] […]
Activation of washed human platelets was monitored by flow cytometry for the detection of PAC1 (GPIIbIIIa activation) and CD62p (P-selectin expression) binding as previously described.[4] […] Platelets were collected, counted on a Z1 Coulter Particle Counter (Beckman Coulter, Brea, CA), and diluted in TBB to 1.5 × 10^7 platelets/mL. […] Data were collected on a three-laser BD LSRFortessa (Becton Dickinson) and analyzed with FlowJo software (FlowJo LLC, Ashland, OR). The mean fluorescence intensity (geometric) of PE and FITC was determined from 30,000 events after compensation correction. […]

In assay [3] the target is T1, PAR1. In words: PAR1 component of α-thrombin activation (α-thrombin + BMS-3) in platelets. As to conditions: read-out: PAR1 IC50 (Figure 6D). From the text:
Figure 6 (A) Distribution of IC50 values for the inhibition of human PAR4 vs mouse PAR4. Red indicates the 2 compounds highlighted in panels (B–D). (B) Structures of exemplar compounds. (C) Concentration–response curves for human vs mouse PAR4. (D) Concentration–response curves for the inhibition of pharmacologically defined α-thrombin components for PAR1 (α-thrombin + BMS-3) vs PAR4 (α-thrombin + vorapaxar).
α-thrombin activates both PAR1 and PAR4, and the individual PAR1 or PAR4 component can be isolated pharmacologically. […] With 20 substitutions between PAR1 and PAR4 within 5 Å of the predicted 31 binding site, the basis for these selectivity differences is not known (Figure S4). As we continue to probe for a selective PAR4 antagonist, mutagenesis of individual residues will be conducted.

Assay [4] has as its target T2, PAR4. In words: Schild analysis, progressive fold-shift against γ-thrombin in platelets. Further details: endogenous in cells; host or cells: platelets. As to conditions: for mode of inhibition: against γ-thrombin activation; for Schild plot slope m: slope of linear regression, γ-thrombin, 20 min pretreatment. The method, then: A Schild analysis was performed on compounds 12 and 31 to determine the mode of inhibition of these compounds.
Figure 7 Schild analysis progressive fold-shift experiments. (A) Platelets were pretreated with increasing concentrations of each antagonist for 20 min prior to activation with increasing concentrations of γ-thrombin. (B) Logarithmic transformation of the dose ratio plotted versus the logarithm of compound concentration. m = slope of linear regression. TEXT PRINTED IN THE PICTURE: (B) 12: m = 0.99 | (D) 31: m = 0.95

“Also recorded” adds a separate entry of the source.

These results are taken from PMC11020070, “Discovery of Protease-Activated Receptor 4 (PAR4)-Tethered Ligand Antagonists Using Ultralarge Virtual Screening” (ACS Pharmacology & Translational Science, 2024).

In the case of `Cc1nc(NC(=O)c2cc(-c3ccccc3)n(-c3ccccc3)n2)n[nH]1` [Compound 7], the “inhibition of PAR1 agonist peptide activation” value at PAR1 [1] is reported as “did not inhibit”. On PAR4 [2], the “inhibition of PAR4 agonist peptide activation” value is “not inhibiting; also recorded: did not inhibit”.
As a reminder, the IC50 is the point on the concentration scale where inhibition reaches its midpoint. As for `Cn1nc(C(=O)Nc2n[nH]c(-c3c(F)cccc3F)n2)cc1C1CC1` [Compound 12], the 50% inhibitory concentration (IC50) at PAR1 [3] amounted to 5.81 µM. Further, at PAR4 [4], the mode of inhibition result is given as “competitive” and the “Schild plot slope m” value is recorded as 0.99.
On the same counts, the results for `O=C(Nc1n[nH]c(-c2ccc(F)cc2F)n1)c1nn(-c2ccccc2)c2c1CCCC2` [Compound 31] are 1.51 µM, “competitive” and 0.95.
